Experimental data taken from patent US11364248B2 (AMGEN INC., priority 2017, dated 2022).
Like-named read-outs stand apart in the source and are kept apart here.

Key:
[1] = tested on: OPM-2; assay: Cell Viability Assay (OPM-2 10 FBS); type: cell-based, human; details: OPM-2 cells, CellTiter-Glo, read-out: OPM-2 10% FBS IC50 IP
Experimental: Cell Viability Assay (OPM-2 10 FBS)
The human multiple myeloma cell line, OPM-2, was cultured in complete growth medium containing RPMI 1640 and 10% fetal bovine serum (FBS). Cells were seeded into 384-well plates at 3000 cells/well density in complete growth medium containing 10% FBS, and incubated for 16 h with serially diluted test compounds in a 37° C. incubator with 5% CO2. Cell viability was tested using CellTiter-Glo® assay (Promega, Madison, Wis.) according to the manufacturer recommendations. Luminescence was determined using an EnVision® Multilabel plate reader 25 min after the addition of detection reagent. IC50 values were then calculated with Xlfit using a logistical 4-parameter fit model in GraphPad Prism (GraphPad Software, San Diego, Calif.) or in Genedata Screener® (Genedata, Basel, Switzerland).

[2] = biological target: Mcl-1/Bim interaction (Homo sapiens (Human), UniProt Q07820); assay: Cell Free Mcl-1: Bim Affinity Assay (Mcl-1 HTRF); type: binding; details: TR-FRET, recombinant human Mcl-1(171-327), biotin-Bim(51-76); read-out: Mel-1 HTRF IC50
Sequence of Mcl-1/Bim interaction (Q07820 171-327): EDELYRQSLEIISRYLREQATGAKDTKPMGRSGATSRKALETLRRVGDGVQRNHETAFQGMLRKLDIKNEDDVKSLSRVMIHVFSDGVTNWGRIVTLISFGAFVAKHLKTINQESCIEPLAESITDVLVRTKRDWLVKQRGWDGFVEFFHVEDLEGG
Experimental: Cell Free Mcl-1: Bim Affinity Assay (Mcl-1 HTRF)
The inhibition of the Mcl-1/Bim interaction was measured using a time-resolved fluorescence resonance energy transfer (TR-FRET) assay. The recombinant human Mcl-1 (C-terminally 6×His tagged Mcl-1 containing residues 171-327) was generated at Amgen Inc (Thousand Oaks, Calif.). A biotinylated peptide derived from human Bim (residues 51-76) was purchased from CPC Scientific (San Jose, Calif.). The TR-FRET assay was conducted in a 384-well white OptiPlate™ (PerkinElmer, Waltham, Mass.) in a total volume of 40 μL. The reaction mixture contained 0.1 nM Mcl-1(171-327), 0.05 nM biotin-Bim(51-76), 0.05 nM LANCER Eu-W1024 Anti-6×His (PerkinElmer), 0.072 nM Streptavidin-Xlent (Cisbio, Bedford, Mass.), and serially diluted test compounds in the binding buffer of 20 mM Hepes, pH 7.5, 150 mM NaCl, 0.016 mM Brij©35, and 1 mM dithiothreitol. Test compounds were pre-incubated with Mcl-1(171-327) and biotin-Bim (51-76) for 60 min before addition of the detection mixture (LANCE Eu-W1024 Anti-6×His and Streptavidin-Xlent). The reaction plates were further incubated overnight and then were read on an Envision® multimode reader (PerkinElmer). Fluorescence signals were measured at 620 nm (40-nm bandwidth) and 665 nm (7.5-nm bandwidth) with a 60 μs delay after excitation at 320 nm (75-nm bandwidth). The signal ratio at 665/620 nm corresponded to the Mcl-1/Bim interaction and was used in all data analyses. The IC50 values of test compounds were determined from duplicate data by analyzing competition curves using a four-parameter sigmoidal model in GraphPad Prism (GraphPad Software, San Diego, Calif.) or in Genedata Screener® (Genedata, Basel, Switzerland).

Row | SMILES | IC50 [2] | IC50 ([1]; 16 h) | IC50 ([1]; Homo sapiens, OPM-2, 16 h)
1 | C[C@@H]1[C@@H](C)CCC[C@@H]([C@H]2OC[C@@H](CN(C)C)O2)[C@@H]2CC[C@H]2CN2C[C@@]3(CCCc4cc(Cl)ccc43)COc3ccc(cc32)C(=O)NS1(=O)=O (single isomer, unassigned) [Example 29] | 0.837 nM | 317 nM | 
2 | C[C@@H]1[C@@H](C)CCC[C@@H]([C@H]2OC[C@@H](CN(C)C)O2)[C@@H]2CC[C@H]2CN2C[C@@]3(CCCc4cc(Cl)ccc43)COc3ccc(cc32)C(=O)NS1(=O)=O (single isomer, unassigned) [Example 30] | 5.12 nM | 2440 nM | 
3 | C[C@@H]1[C@@H](C)CCC[C@@H]([C@H]2OC[C@H](CN(C)C)O2)[C@@H]2CC[C@H]2CN2C[C@@]3(CCCc4cc(Cl)ccc43)COc3ccc(cc32)C(=O)NS1(=O)=O (single isomer, unassigned) [Example 33] | 0.612 nM | 319 nM | 
4 | C[C@@H]1[C@@H](C)CCC[C@@H]([C@H]2OC[C@H](CN(C)C)O2)[C@@H]2CC[C@H]2CN2C[C@@]3(CCCc4cc(Cl)ccc43)COc3ccc(cc32)C(=O)NS1(=O)=O (single isomer, unassigned) [Example 34] | 11.1 nM | 5830 nM | 
5 | CC(=O)N1C[C@@H]2O[C@@H]([C@H]3CCC[C@H](C)[C@@H](C)S(=O)(=O)NC(=O)c4ccc5c(c4)N(C[C@@H]4CC[C@H]43)C[C@@]3(CCCc4cc(Cl)ccc43)CO5)O[C@@H]2C1 (single isomer, unassigned) [Example 39] | 0.375 nM | 578 nM | 
6 | C[C@@H]1[C@@H](C)CCC[C@@H]([C@H]2OC[C@@H](N3CC(F)C3)CO2)[C@@H]2CC[C@H]2CN2C[C@@]3(CCCc4cc(Cl)ccc43)COc3ccc(cc32)C(=O)NS1(=O)=O (single isomer, unassigned) [Example 50] | 0.492 nM | 126 nM | 
7 | C[C@@H]1[C@@H](C)CCC[C@@H]([C@H]2OC[C@@H](N3CC(F)C3)CO2)[C@@H]2CC[C@H]2CN2C[C@@]3(CCCc4cc(Cl)ccc43)COc3ccc(cc32)C(=O)NS1(=O)=O (single isomer, unassigned) [Example 51] | 0.754 nM | 1010 nM | 
8 | C[C@@H]1[C@@H](C)CCC[C@@H]([C@H]2OC[C@@H](N3CC(Cl)C3)CO2)[C@@H]2CC[C@H]2CN2C[C@@]3(CCCc4cc(Cl)ccc43)COc3ccc(cc32)C(=O)NS1(=O)=O (single isomer, unassigned) [Example 55] | 0.742 nM | 465 nM | 
9 | C[C@@H]1[C@@H](C)CCC[C@H]([C@H]2O[C@H]3CNC[C@H]3O2)[C@@H]2CC[C@H]2CN2C[C@@]3(CCCc4cc(Cl)ccc43)COc3ccc(cc32)C(=O)NS1(=O)=O (stereo in doubt) [Example 9, (1S,3′R,6′R,7′R,11′S,12′R)-6-chloro-11′,12′-dimethyl-7′-((2r,3aR,6aS)-tetrahydro-3aH-[1,3]dioxolo[4,5-c]pyrrol-2-yl)-3,4-dihydro-2H,15′H-spiro[naphthalene-1,22′-[20]oxa[13]thia[1,14]diazatetracyclo [14.7.2.0~3,6~.0~19,24~]pentacosa[16,18,24]trien]-15′-one 13′,13′-dioxide] | 0.49 nM | 381 nM | 
10 | C[C@@H]1[C@@H](C)CCC[C@H]([C@H]2O[C@H]3CNC[C@H]3O2)[C@@H]2CC[C@H]2CN2C[C@@]3(CCCc4cc(Cl)ccc43)COc3ccc(cc32)C(=O)NS1(=O)=O (stereo in doubt) [Example 10, (1S,3′R,6′R,7′R,11′S,12′R)-6-chloro-11′,12′-dimethyl-7′-((2r,3aR,6aS)-tetrahydro-3aH-[1,3]dioxolo[4,5-c]pyrrol-2-yl)-3,4-dihydro-2H,15′H-spiro[naphthalene-1,22′-[20]oxa[13]thia[1,14]diazatetracyclo [14.7.2.0~3,6~.0~19,24~]pentacosa[16,18,24]trien]-15′-one 13′,13′-dioxide] | 1.27 nM | 1120 nM | 
11 | C[C@@H]1[C@@H](C)CCC[C@H]([C@H]2O[C@H]3CNC[C@H]3O2)[C@@H]2CC[C@H]2CN2C[C@@]3(CCCc4cc(Cl)ccc43)COc3ccc(cc32)C(=O)NS1(=O)=O (stereo in doubt) [Example 15, (1S,3′R,6′R,7′R,11′S,12′R)-6-chloro-11′,12′-dimethyl-7′-((2r,3aR,6aS)-tetrahydro-3aH-[1,3]dioxolo[4,5-c]pyrrol-2-yl)-3,4-dihydro-2H,15′H-spiro[naphthalene-1,22′-[20]oxa[13]thia[1,14]diazatetracyclo [14.7.2.0~3,6~.0~19,24~]pentacosa[16,18,24]trien]-15′-one 13′,13′-dioxide] | 0.765 nM | 625 nM | 
12 | CC(=O)N1C[C@@H]2O[C@H]([C@H]3CCC[C@H](C)[C@@H](C)S(=O)(=O)NC(=O)c4ccc5c(c4)N(C[C@@H]4CC[C@H]43)C[C@@]3(CCCc4cc(Cl)ccc43)CO5)O[C@@H]2C1 (stereo in doubt) [Example 16, (1S,3′R,6′R,7′R,11′S,12′R)-7′-((2r,3aR,6aS)-5-acetyltetrahydro-3aH-[1,3]dioxolo[4,5-c]pyrrol-2-yl)-6-chloro-11′,12′-dimethyl-3,4-dihydro-2H,15′H-spiro[naphthalene-1,22′-[20]oxa[13]thia[1,14]diazatetracyclo [14.7.2.0~3,6~.0~19,24~]pentacosa[16,18,24]trien]-15′-one 13′,13′-dioxide] | 0.194 nM |  | 262 nM
13 | C[C@@H]1[C@@H](C)CCC[C@H]([C@H]2O[C@H]3CN(C)C[C@H]3O2)[C@@H]2CC[C@H]2CN2C[C@@]3(CCCc4cc(Cl)ccc43)COc3ccc(cc32)C(=O)NS1(=O)=O (stereo in doubt) [Example 24, (1S,3′R,6′R,7′R,11′S,12′R)-6-chloro-11′,12′-dimethyl-7′-((2r,3aR,6aS)-5-methyltetrahydro-3aH-[1,3]dioxolo[4,5-c]pyrrol-2-yl)-3,4-dihydro-2H,15′H-spiro[naphthalene-1,22′-[20]oxa[13]thia[1,14]diazatetracyclo [14.7.2.0~3,6~.0~19,24~]pentacosa[16,18,24]trien]-15′-one 13′,13′-dioxide] | 0.709 nM |  | 532 nM

Second part, led by results:

Row | IC50 [2] | SMILES | IC50 ([1]; 16 h) | IC50 ([1]; Homo sapiens, OPM-2, 16 h)
14 | 1.98 nM | C[C@@H]1[C@@H](C)CCC[C@@H]([C@H]2OC[C@@H](N3CC(Cl)C3)CO2)[C@@H]2CC[C@H]2CN2C[C@@]3(CCCc4cc(Cl)ccc43)COc3ccc(cc32)C(=O)NS1(=O)=O (single isomer, unassigned) [Example 56] | 1900 nM | 
15 | 0.455 nM | C[C@@H]1[C@@H](C)CCC[C@@H]([C@H]2OC[C@@H](N3CC(O)C3)CO2)[C@@H]2CC[C@H]2CN2C[C@@]3(CCCc4cc(Cl)ccc43)COc3ccc(cc32)C(=O)NS1(=O)=O (single isomer, unassigned) [Example 61] | 1010 nM | 
16 | 2.08 nM | C[C@@H]1[C@@H](C)CCC[C@@H]([C@H]2OC[C@@H](N3CC(O)C3)CO2)[C@@H]2CC[C@H]2CN2C[C@@]3(CCCc4cc(Cl)ccc43)COc3ccc(cc32)C(=O)NS1(=O)=O (single isomer, unassigned) [Example 62] | 4470 nM | 
17 | 2.06 nM | C[C@@H]1[C@@H](C)CCC[C@@H]([C@H]2OC[C@@H](N3CCC3(C)C)CO2)[C@@H]2CC[C@H]2CN2C[C@@]3(CCCc4cc(Cl)ccc43)COc3ccc(cc32)C(=O)NS1(=O)=O (single isomer, unassigned) [Example 63] | 1150 nM | 
18 | 4.9 nM | C[C@@H]1[C@@H](C)CCC[C@@H]([C@H]2OC[C@@H](N3CCC3(C)C)CO2)[C@@H]2CC[C@H]2CN2C[C@@]3(CCCc4cc(Cl)ccc43)COc3ccc(cc32)C(=O)NS1(=O)=O (single isomer, unassigned) [Example 64] | 7490 nM | 
19 | 0.382 nM | C[C@@H]1[C@@H](C)CCCC(C2OCC(N)(CO)CO2)[C@@H]2CC[C@H]2CN2C[C@@]3(CCCc4cc(Cl)ccc43)COc3ccc(cc32)C(=O)NS1(=O)=O (single isomer, unassigned) [Example 80] | 240 nM | 
20 | 0.448 nM | C[C@@H]1[C@@H](C)CCCC(C2OCC(CO)(N(C)C)CO2)[C@@H]2CC[C@H]2CN2C[C@@]3(CCCc4cc(Cl)ccc43)COc3ccc(cc32)C(=O)NS1(=O)=O (single isomer, unassigned) [Example 86] |  | 178 nM
